Results as given in patent publication US20130324606A1, “Ester Derivatives of Bimatoprost Compositions and Methods” (ALLERGAN, INC., priority 2011, published 2013).

What was measured:
[1] = test system: human hair dermal papilla cells, HHDPC; assay: Cellular dielectric spectroscopy (CDS) in dermal papilla cells; type: cell-based
Protocol: Cellular dielectric spectroscopy (CDS) was conducted in an assay of dermal papilla cells (i.e., human hair dermal papilla cells, HHDPC) with bimatoprost and Cmpds IVc and IVb. As known in the art, CDS is a real-time, non-invasive, label-free, high-throughput, cell-based assay which measures electrical cell impedance. Without wishing to be bound by any theory, it is believed that GPCR activation induces changes in cell morphology, cell-cell interaction, and cell adherence which manifest as a change in cell impedance.

C57Black/6J mice = assay: Piliation (hair regrowth) studies in mice; type: in vivo; conditions: 0.03%, topical QD 14 days, vehicle 50% propylene glycol, 30% ethanol, 20% water
Protocol: C57Black/6J, 7-week old female mice (n=10) were employed in piliation studies. Dorsal hair was shaved (area ˜2 cm×4 cm). Dosing of active agent was once per day (QD) by topical administration for 14 days. Observations were conducted for 42-days to determine onset of new hair growth and day of hair growth completion. Compounds were formulated as either a) 50% propylene glycol, 30% ethanol, 20% water, or b) the formulation of Formulation A described above. The experiments reported for FIGS. 4A-4B, 5A-5B, 6A-6B, 8A-8B, and 9A-9B were conducted using a vehicle with formulation of 50% propylene glycol, 30% ethanol, 20% water. The experiments reported for FIGS. 7A-7B were conducted using a vehicle of Formulation A described above.
For each of FIGS. 4A, 5A, 6A, 7A, 8A and 9A, the histograms depict the day of onset of hair growth. For each of FIGS. 4B, 5B, 6B, 7B, 8B and 9B, the histograms depict the day achieving full hair growth.

mouse skin = assay: Pathology assessment of mouse hair regrowth model; type: in vivo, mice; conditions: histology, 0.03% active, vehicle control still in growth phase
Source text: Histological samples from test subjects employed in the studies described in Example 12 were obtained for pathology assessment.

[2] = Pharmacokinetic assessment of mouse hair regrowth model; type: in vivo; conditions: mice, 0.03% dermal daily ~60 uL, all measured time points, LC/MS-MS
Protocol: Female C57BL/6J mice (n=2) were assayed per time point per treatment group. Treatment groups: (1) vehicle; (2) 0.03% Cmpd IVa; (3) 0.03% Cmpd IIIb; (4) 0.03% Cmpd IVb; (5) 0.03% bimatoprost. Treatment dosing: dermal daily application of ˜60 uL test compound solution. Blood and skin pharmacokinetic time points were obtained at day 1 (1, 4, 8 and 24-hrs post-dose); day 2 (24-hrs post-dose); day 14 (24-hrs post-dose); and day 42 (28 days post day 14 dose). Bioanalysis employed LC/MS-MS.

[3] = In vitro human skin penetration (Franz diffusion chamber); type: in vitro ADME; conditions: 0.03% in Formulation A, dosed compound
Source text: Test material: Dermatomed ex vivo human cadaver posterior trunk skin on 1.0 cm^2 Franz diffusion chamber as known in the art. Test size: 3 skin donors (obtained from New York Firefighters Skin Bank), 3 replicates per donor per formulation. Test formulations: 0.03% active agent (Cmpd IVa, Cmpd IIIb, Cmpd IVb) in Formulation A; control formulation: bimatoprost at 0.03% in Formulation A. Dosing regimen: receptor fluid at 2, 4, 24, and 48 hrs; SC/epidermis and dermis at 48 hrs. Sample analysis: LC/MS-MS to detect bimatoprost and Cmpds IVa, IIIb and IVb.

[4] = Partitioning in artificial sebum; type: physicochemical
Protocol: Compounds bimatoprost, Cmpd IVa, and Cmpd IIIb were added to aqueous solution (1 mL, 2-20 ug/mL), with and without 1-20 mg artificial sebum. Samples were shaken for 16 hr at 37° C. Samples were then centrifuged (8000 RPM) for 15 min at room temperature, prior to collection of the aqueous solution. Samples were analyzed for concentration of compound without artificial sebum (i.e., Co) and with artificial sebum (i.e., Ci) by mass spectroscopy. Artificial sebum and water partition coefficient (Ksebum) was expressed as the concentration of drug in 1 g of artificial sebum divided by the concentration of drug in 1 g of aqueous solution, and was calculated as Ksebum=(Co−Ci)Waqueous/(Ci×Wsebum) (Eqn. 1), where W represents weight.
Artificial sebum was prepared as follows: 15% (w/w) squalene, 15% spermaceti, 10% coconut oil, 1.5% oleic acid, 5% palmitic acid, 2.4% cholesterol oleate, 10% paraffin wax, 10% olive oil, 25% cottonseed oil, 5% palmitoleic acid, 1.2% cholesterol. The melting point of the semi-liquid was 37° C.

[5] = Compound distribution in mouse skin by MALDI-MS imaging; type: in vivo; conditions: topical dermal, once daily 3 days, 4 hr after day-3 dosing
Protocol: In order to determine the penetration, accumulation and/or differential distribution of bimatoprost and compounds disclosed herein upon dermal administration, MALDI-MS (matrix assisted laser desorption ionization mass spectroscopy) imaging was conducted on explanted samples of mouse skin after topical dermal administration.
MALDI-MS imaging was conducted on mouse skin strips after administration of bimatoprost or compound disclosed herein once daily for 3 days. Samples of mouse skin were recovered 4 hr after day-3 dosing of compound. Dermal administration was conducted with vehicle, 0.03% bimatoprost, 3% bimatoprost, 0.03% Cmpd IVa, and 3% Cmpd IVa.
FIG. 16A depicts a typical explanted sample of mouse skin for these studies, wherein Cmpd IVa was applied via dermal administration. FIG. 16B depicts the result of MALDI-MS imaging. The intensity of each pixel within FIG. 16B reflects the concentration of Cmpd IVa at the corresponding point in the image depicted in FIG. 16A. FIG. 16C depicts a representative mass spectrum, corresponding to the region of FIG. 16B indicated by the white circle within FIG. 16B. Accordingly, each pixel of the image of FIG. 16B has an associated mass spectrum, providing the amounts of bimatoprost or other administered compound or metabolite thereof.

EC50 ([1]; cell impedance, tested range 10^−4 to 10^−13 mol/L): 3.0 to 6.3×10^−7 mol/L
level in the systemic circulation [2]: most undetectable
Percentage Dose Applied, Receptor Chamber Solution, Prodrug ([3]; Franz chamber): 1.1 Percentage Dose Applied
Percentage Dose Applied, Upper ⅓ Dermis, Prodrug ([3]; dermis at 48 hrs): 7.0 Percentage Dose Applied
phase in which the majority of compound remains ([4]; artificial sebum / aqueous solution): remain in the aqueous phase
Ave. Ksebum (artificial sebum and water partition coefficient) ([4]; n = 4, 16 hr at 37° C.): 3.6
levels of bimatoprost in skin after 3.0% bimatoprost versus after 3.0% Cmpd IVa [5]: much higher
Compound: CCNC(=O)CCC/C=C\C[C@@H]1[C@@H](/C=C/[C@@H](O)CCc2ccccc2)[C@H](O)C[C@@H]1O [bimatoprost, (Z)-7-((1R,2R,3R,5S)-3,5-dihydroxy-2-((S,E)-3-hydroxy-5-phenylpent-1-enyl)cyclopentyl)-N-ethylhept-5-enamide]
change in cell impedance [1]: characteristic change in cell impedance
days for hair growth to commence (day of onset of hair growth) (C57Black/6J mice; FIG. 6A): 22 days
days for full hair growth to be achieved (C57Black/6J mice; FIG. 6B): 44 days
hair cycle phase at day-42 (mouse skin): returned to the resting phase
